Source: BindingDB's records for doi:10.1016/j.chembiol.2007.10.017 (University of California Irvine, 2007)

Target: T1, Monoglyceride lipase (Rattus norvegicus, UniProt Q8R431)
T1 sequence (Q8R431 whole entry): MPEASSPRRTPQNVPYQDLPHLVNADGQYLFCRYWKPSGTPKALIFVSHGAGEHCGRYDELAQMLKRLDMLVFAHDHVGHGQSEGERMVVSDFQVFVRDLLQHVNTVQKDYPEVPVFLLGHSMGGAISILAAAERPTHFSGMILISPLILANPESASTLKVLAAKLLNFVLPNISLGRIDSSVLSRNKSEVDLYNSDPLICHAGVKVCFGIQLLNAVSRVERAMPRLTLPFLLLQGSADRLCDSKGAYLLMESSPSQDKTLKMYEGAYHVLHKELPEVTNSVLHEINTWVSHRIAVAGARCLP
Experiment: Inhibition Assay
Conditions: pH 8
Source text: The measurement of the ability of URB602 compound to inhibit MGL activity.

Compound	IC50 [µM]
O=C(Nc1cccc(-c2ccccc2)c1)Oc1ccccc1 [URB602, 3l]	243
O=C(Nc1cccc(-c2ccccc2)c1)Oc1cccc(-c2ccccc2)c1 [URB602, 3j]	> 300
O=C(Nc1ccccc1)OC1CCCCC1 [URB602, 3b]	> 300
O=C(Nc1cccc(-c2ccccc2)c1)OCC(O)CO (centres undefined) [URB602, 3h]	> 300
O=C(Nc1cccc(-c2ccccc2)c1)OC(CO)CO [URB602, 3n]	> 300
CC1(C)OCC(OC(=O)Nc2cccc(-c3ccccc3)c2)CO1 [URB602, 3i]	> 300
O=C(NCCCCCc1ccccc1)OC1CCCCC1 [URB602, 3a]	> 300
Cc1cccc(-c2cccc(NC(=O)OC(CO)CO)c2)c1 [URB602, 3m]	> 300
O=C(Nc1cccc(-c2ccccc2)c1)OCCCCCc1ccccc1 [URB602, 3c]	> 300

The remaining lines, values ahead:

IC50 [µM]	Compound
> 300	O=C(CC1CCCCC1)Nc1cccc(-c2ccccc2)c1 [URB602, 5]
> 300	O=C(Nc1ccc(-c2ccccc2)cc1)OC1CCCCC1 [URB602, 3k]
> 300	CN(C(=O)OC1CCCCC1)c1cccc(-c2ccccc2)c1 [URB602, 3o]
> 300	O=C(Nc1ccccc1-c1ccccc1)OC1CCCCC1 [URB602, 3g]
> 300	O=C(Nc1cccc(-c2ccccc2)c1)SC1CCCCC1 [URB602, 6]
> 300	O=C(Nc1cccc(Oc2cccc(-c3ccccc3)c2)c1)OC1CCCCC1 [URB602, 3f]
223	O=C(Nc1cccc(-c2ccccc2)c1)OC1CCCCC1 [cyclohexyl biphenyl-3-ylcarbamate]
> 300	Cc1cccc(-c2cccc(NC(=O)OC3CCCCC3)c2)c1 [URB602, 3d]
115	O=C(Nc1cccc(-c2ccccc2)c1)NC1CCCCC1 [URB602, 4a]
> 300	O=C(Nc1cccc(-c2cccc(C(F)(F)F)c2)c1)OC1CCCCC1 [URB602, 3e]
